Results published in BindingDB's records for doi:10.7270/Q2251GJ9 (The Scripps Research Institute Molecular Screening Center, 2007).
Where a name gives a salt, the structure may show the parent alone.

What follows are compounds tested against Sphingosine 1-phosphate receptor 1 (Homo sapiens, UniProt P21453) (assay: S1P1 receptor agonists, dose response, cell-based, agonist mode, 60K MLSMR set (AID 468)). Settings: not given.
Sphingosine 1-phosphate receptor 1, sequence (P21453 whole entry): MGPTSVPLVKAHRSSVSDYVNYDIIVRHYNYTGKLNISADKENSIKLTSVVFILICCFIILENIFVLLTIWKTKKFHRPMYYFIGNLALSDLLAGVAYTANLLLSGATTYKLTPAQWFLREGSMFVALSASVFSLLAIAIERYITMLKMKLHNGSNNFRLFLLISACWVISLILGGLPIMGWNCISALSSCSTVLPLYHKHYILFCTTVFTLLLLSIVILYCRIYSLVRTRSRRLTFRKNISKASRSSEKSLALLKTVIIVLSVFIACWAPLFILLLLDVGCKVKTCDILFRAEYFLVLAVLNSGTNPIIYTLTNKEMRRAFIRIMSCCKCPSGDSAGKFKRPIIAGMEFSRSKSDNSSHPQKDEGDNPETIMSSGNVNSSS

EC50 [µM] | Structure (SMILES)
> 1 | CC(C)Oc1cc(O)c2c(=O)c(-c3ccc(O)cc3)coc2c1 [3-(4-hydroxyphenyl)-5-oxidanyl-7-propan-2-yloxy-chromen-4-one]
7.98 | COc1ccc(-c2nc(-c3ccc(Br)o3)no2)cc1OC [3-(5-bromanylfuran-2-yl)-5-(3,4-dimethoxyphenyl)-1,2,4-oxadiazole]
9.7 | CN(C)CC(C(=O)c1ccccc1)c1ccccc1 (stereo not given) [3-(dimethylamino)-1,2-diphenyl-1-propanone;hydrochloride]
1.87 | CCOc1ccc(-c2nc(-c3ccccc3C)no2)cc1 [3-(o-tolyl)-5-p-phenetyl-1,2,4-oxadiazole]
2.47 | CN(C)c1ccnc2sc3c(=O)n(Cc4ccccc4)cnc3c12 [3-Benzyl-9-dimethylamino-3H-pyrido[3',2':4,5]thieno[3,2-d]pyrimidin-4-one]
7.44 | Cc1cc(NC(=O)c2oc3ccccc3c2C)ccc1-n1cnnn1 [3-Methyl-benzofuran-2-carboxylic acid (3-methyl-4-tetrazol-1-yl-phenyl)-amide]
> 10 | Cc1cc(C(=O)CC#N)c(C)n1-c1ccc(OC(F)F)cc1 [3-[1-[4-(difluoromethoxy)phenyl]-2,5-dimethyl-3-pyrrolyl]-3-oxopropanenitrile]
4.94 | O=C(CCc1nc(-c2ccccc2F)no1)Nc1ccc(Oc2ccccc2)cc1 [3-[3-(2-fluorophenyl)-1,2,4-oxadiazol-5-yl]-N-(4-phenoxyphenyl)propanamide]
13.2 | COc1ccc(/N=c2\scc(-c3ccc(S(=O)(=O)N4CCOCC4)cc3)n2CCCO)cc1 [3-[(2Z)-2-[(4-methoxyphenyl)imino]-4-[4-(morpholin-4-ylsulfonyl)phenyl]-1,3-thiazol-3(2H)-yl]propan-1-ol]
4.08 | CCOc1ccc(C(=O)Nc2c(C(N)=O)oc3ccccc23)cc1 [3-[(4-ethoxybenzoyl)amino]-1-benzofuran-2-carboxamide]
5.51 | CCOc1ccc(C(=O)Nc2ccc(Cl)cn2)cc1Cl [3-chloranyl-N-(5-chloranylpyridin-2-yl)-4-ethoxy-benzamide]
> 95 | Cc1ccc(O)c(NC(=O)CCC2CCCCC2)c1 [3-cyclohexyl-N-(2-hydroxy-5-methyl-phenyl)propionamide]
7.53 | Cc1ccsc1C(=O)OCC(=O)c1cc(C)n(CC2CCCO2)c1C (stereo not given) [3-methyl-2-thiophenecarboxylic acid [2-[2,5-dimethyl-1-(2-oxolanylmethyl)-3-pyrrolyl]-2-oxoethyl] ester]

More lines, now with the values behind:

Structure (SMILES) | EC50 [µM]
CC(C)(C)C1CCC2(CC1)C(C#N)=C(SCC(=O)Nc1ccccc1)NC(=O)C2C#N (stereo not given) [2-[(9-tert-butyl-1,5-dicyano-2-oxidanylidene-3-azaspiro[5.5]undec-4-en-4-yl)sulfanyl]-N-phenyl-ethanamide] | 4.92
COCCn1c(C)cc(C(=O)CSc2nc3ccccc3c(=O)[nH]2)c1C [2-[[2-[1-(2-methoxyethyl)-2,5-dimethyl-3-pyrrolyl]-2-oxoethyl]thio]-1H-quinazolin-4-one] | 61.2
COCCn1c(C)cc(C(=O)CSc2nnc(-c3cccnc3)n2-c2ccccc2F)c1C [2-[[4-(2-fluorophenyl)-5-(3-pyridinyl)-1,2,4-triazol-3-yl]thio]-1-[1-(2-methoxyethyl)-2,5-dimethyl-3-pyrrolyl]ethanone] | 1.87
Cc1ccccc1-n1c(SCC(=O)c2cc(C)n(C)c2C)nnc1-c1ccncc1 [2-[[4-(2-methylphenyl)-5-pyridin-4-yl-1,2,4-triazol-3-yl]sulfanyl]-1-(1,2,5-trimethylpyrrol-3-yl)ethanone] | 10
O=C(CSc1nnc(Cc2csc(Nc3cccc(Cl)c3)n2)o1)N1CCc2ccccc21 [2-[[5-[[2-(3-chloroanilino)-1,3-thiazol-4-yl]methyl]-1,3,4-oxadiazol-2-yl]sulfanyl]-1-(2,3-dihydroindol-1-yl)ethanone] | > 95
Cc1ccc(-c2nc(CSCC(=O)N3CCN(c4ccccn4)CC3)c(C)o2)cc1 [2-[[5-methyl-2-(4-methylphenyl)-1,3-oxazol-4-yl]methylsulfanyl]-1-(4-pyridin-2-ylpiperazin-1-yl)ethanone] | 5.51
CCN(CC)C(=O)CS/C(=N/C#N)Nc1ccccc1F [2-[[N-cyano-N'-(2-fluorophenyl)amidino]thio]-N,N-diethyl-acetamide] | > 95
Clc1ccc(OCc2nnc(SCc3nc4ccccc4[nH]3)n2Cc2ccco2)cc1 [2-[[[5-[(4-chlorophenoxy)methyl]-4-(2-furanylmethyl)-1,2,4-triazol-3-yl]thio]methyl]-1H-benzimidazole] | 7.6
Oc1ccc(C2NCc3ccccc3-n3cccc32)cc1Cl (stereo not given) [2-chloranyl-4-(5,6-dihydro-4H-pyrrolo[1,2-a][1,4]benzodiazepin-4-yl)phenol;hydrochloride] | 3.04
CCOC(=O)c1ccc2c(c1)C(=O)N(C1CCCCC1)C2=O [2-cyclohexyl-1,3-diketo-isoindoline-5-carboxylic acid ethyl ester] | > 95
CCOc1nc(C)ccc1-c1noc(-c2ccncc2)n1 [2-ethoxy-6-methyl-3-[5-(4-pyridinyl)-1,2,4-oxadiazol-3-yl]pyridine] | 5.42
COc1cc(C#CC#CCN2CCCCC2)ccc1O [2-methoxy-4-(5-piperidin-1-ylpenta-1,3-diynyl)phenol;hydrochloride] | 8.34
COCC(=O)Nc1cccc(C(F)(F)F)c1 [2-methoxy-N-[3-(trifluoromethyl)phenyl]acetamide] | > 95
Cc1ccc(-n2c(C)cc(C(=O)COC(=O)c3c(C)noc3C)c2C)cc1 [3,5-dimethyl-4-isoxazolecarboxylic acid [2-[2,5-dimethyl-1-(4-methylphenyl)-3-pyrrolyl]-2-oxoethyl] ester] | 8.31
N#CCCS(=O)(=O)c1nnnn1-c1ccccc1 [3-(1-phenyltetrazol-5-yl)sulfonylpropanenitrile] | 3.66
O=c1c(-c2ccc3c(c2)OCCO3)c(C(F)(F)F)oc2cc(O)cc(O)c12 [3-(2,3-dihydro-1,4-benzodioxin-6-yl)-5,7-bis(oxidanyl)-2-(trifluoromethyl)chromen-4-one] | 4.13
CCOC(=O)c1oc2cc(O)c(CC)cc2c(=O)c1-c1ccc2c(c1)OCCO2 [3-(2,3-dihydro-1,4-benzodioxin-6-yl)-6-ethyl-7-hydroxy-4-keto-chromene-2-carboxylic acid ethyl ester] | > 10
Cc1cc(-c2nnc(-c3ccccc3)c(-c3ccccc3)n2)c(C)o1 [3-(2,5-dimethyl-3-furanyl)-5,6-diphenyl-1,2,4-triazine] | 2.97
CCOc1ccc(-c2noc(-c3ccncc3)n2)cc1OCC [3-(3,4-diethoxyphenyl)-5-(4-pyridyl)-1,2,4-oxadiazole] | 0.613
Cc1oc2cc(O)cc(O)c2c(=O)c1-c1ccc2c(c1)OCCCO2 [3-(3,4-dihydro-2H-1,5-benzodioxepin-7-yl)-2-methyl-5,7-bis(oxidanyl)chromen-4-one] | 4.54
COc1ccc(-c2noc(-c3cc(C)cc(C)c3)n2)cc1OC [3-(3,4-dimethoxyphenyl)-5-(3,5-dimethylphenyl)-1,2,4-oxadiazole] | 1.23
CCOc1ccc(-c2noc(-c3cccnc3)n2)cc1OC [3-(4-ethoxy-3-methoxy-phenyl)-5-(3-pyridyl)-1,2,4-oxadiazole] | 1.2

Same assay, conditions: inactive by the depositor's call

EC50 [µM] | Structure (SMILES)
13.7 | COc1ccc(Cc2nc(-c3ccc(-n4cccc4)cc3)no2)cc1OC [3-(4-pyrrol-1-ylphenyl)-5-veratryl-1,2,4-oxadiazole]
46.8 | CCSc1nc(N2CCOCC2)c2c(c1C#N)CCCC2 [3-(ethylthio)-1-(4-morpholinyl)-5,6,7,8-tetrahydroisoquinoline-4-carbonitrile]
14.4 | Nc1c(C(=O)NC2CCCC2)sc2nc(-c3cccs3)ccc12 [3-Amino-6-thiophen-2-yl-thieno[2,3-b]pyridine-2-carboxylic acid cyclopentylamide]
22.5 | CC/N=c1\sc(C(=O)NCCc2ccccc2)cc(=O)n1CC [3-Ethyl-2-[(Z)-ethylimino]-4-oxo-3,4-dihydro-2H-[1,3]thiazine-6-carboxylic acid phenethyl-amide]
19.3 | CCN(CC)S(=O)(=O)c1cccc(S(=O)(=O)c2cccc(S(=O)(=O)N(CC)CC)c2)c1 [3-[3-(diethylsulfamoyl)phenyl]sulfonyl-N,N-diethyl-benzenesulfonamide]
14 | CCn1c(NC(=O)c2cccc(Cn3cc(Cl)cn3)c2)nc2ccccc21 [3-[(4-chloranylpyrazol-1-yl)methyl]-N-(1-ethylbenzimidazol-2-yl)benzamide]
39.9 | C=CCn1c(SCC(=O)c2cccs2)nc2sc(CC)cc2c1=O [3-allyl-6-ethyl-2-[[2-keto-2-(2-thienyl)ethyl]thio]thieno[2,3-d]pyrimidin-4-one]

Further lines, the compound ahead of its results:

Structure (SMILES) | EC50 [µM]
O=C(CSc1nnc(-c2ccc(Cl)cc2)n1Cc1ccco1)c1cccs1 [2-[[5-(4-chlorophenyl)-4-(2-furanylmethyl)-1,2,4-triazol-3-yl]thio]-1-thiophen-2-ylethanone] | 17.3
Nn1c(Nc2ccccc2)nc2sc3c(c2c1=O)CCC3 [2-amino-3-anilino-7,8-dihydro-6H-cyclopenta[2,3]thieno[2,4-b]pyrimidin-1-one] | 16.4
Cc1nc2sc(-c3ccccc3)cc2c(=O)n1-n1cccc1 [2-methyl-6-phenyl-3-(1-pyrrolyl)-4-thieno[2,3-d]pyrimidinone] | 22.2
COc1ccc(-c2cn3c(C)c(C(=O)N4CCCc5ccccc54)sc3n2)cc1 [3,4-dihydro-2H-quinolin-1-yl-[6-(4-methoxyphenyl)-3-methyl-2-imidazo[2,1-b]thiazolyl]methanone] | 50.5
Cc1ccc(-c2nc(COC(=O)c3c(C)noc3C)cs2)cc1 [3,5-dimethyl-4-isoxazolecarboxylic acid [2-(4-methylphenyl)-4-thiazolyl]methyl ester] | 26.2
Cc1onc(-c2ccccc2Cl)c1C(=O)Oc1cc(N)n(S(=O)(=O)c2ccc(F)cc2)n1 [3-(2-chlorophenyl)-5-methyl-4-isoxazolecarboxylic acid [5-amino-1-(4-fluorophenyl)sulfonyl-3-pyrazolyl] ester] | 18.1
CCOc1cc(-c2noc(-c3cccnc3)n2)ccc1OC [3-(3-ethoxy-4-methoxy-phenyl)-5-(3-pyridyl)-1,2,4-oxadiazole] | 18.7
COc1ccccc1-c1nc(-c2ccc(Br)cc2)no1 [3-(4-bromophenyl)-5-(2-methoxyphenyl)-1,2,4-oxadiazole] | 12
